In patent US20100137313A1 (ASTRAZENECA AB, priority 2008, published 2010) one finds inhibition data, which are given here for 22 compounds.

Sequence of S. pneumoniae Topoisomerase IV ATPase (ParE) (Q59961 whole entry): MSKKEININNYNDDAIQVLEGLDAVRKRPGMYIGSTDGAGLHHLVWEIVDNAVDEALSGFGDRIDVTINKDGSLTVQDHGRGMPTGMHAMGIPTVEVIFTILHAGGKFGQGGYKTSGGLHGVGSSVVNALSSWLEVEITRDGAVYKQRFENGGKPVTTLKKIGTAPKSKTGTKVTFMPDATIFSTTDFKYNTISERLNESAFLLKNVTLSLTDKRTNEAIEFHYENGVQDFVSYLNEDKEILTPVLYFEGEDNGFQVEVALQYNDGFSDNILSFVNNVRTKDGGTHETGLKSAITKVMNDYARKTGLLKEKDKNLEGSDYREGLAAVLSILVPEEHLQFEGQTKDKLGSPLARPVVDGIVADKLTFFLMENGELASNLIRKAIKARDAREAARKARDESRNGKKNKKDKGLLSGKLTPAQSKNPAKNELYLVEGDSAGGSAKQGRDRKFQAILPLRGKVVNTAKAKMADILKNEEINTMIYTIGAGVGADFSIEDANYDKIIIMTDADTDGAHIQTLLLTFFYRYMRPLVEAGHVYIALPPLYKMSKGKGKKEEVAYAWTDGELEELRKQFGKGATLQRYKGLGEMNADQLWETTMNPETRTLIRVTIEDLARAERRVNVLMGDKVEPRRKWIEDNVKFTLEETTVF

The target in this test is S. pneumoniae Topoisomerase IV ATPase (ParE) (Streptococcus pneumoniae serotype 4, UniProt Q59961). Description: S. pneumoniae Topoisomerase IV ATPase inhibition. It counts as biochemical. The settings on record: values marked * are an average of two or more data points, read-out: % Inh (13 μM) of S. pneumoniae Topoisomerase IV ATPase. A digest of the protocol:
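S. pneumoniae ParE (1.25 nM) ATPase with 160 μM ATP and 5 μg/ml sheared DNA in pH 8.0 Tris, Mg2+, DTT, Brij-35; phosphate detected by malachite green/molybdate at 650 nm. Normalised to 2% DMSO (0%) and 20 μM EDTA (100%); IC50 from 10 concentrations.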
`CONC(=O)c1cncc(-c2cnc(Nc3ccc(F)c(Cl)c3)nc2-n2cc(-c3ccccn3)cn2)c1` [Example 550, 5-{2-[(3-chloro-4-fluorophenyl)amino]-4-[4-(pyridin-2-yl)-1H-pyrazol-1-yl]pyrimidin-5-yl}-N-methoxypyridine-3-carboxamide]: the inhibition at 13 µM was 100%.

In the case of `Cc1cc(C(F)(F)F)nn1-c1nc(Nc2ccc(F)c(Cl)c2)ncc1-c1cc(C(=O)O)c(=O)n(C)c1` [Example 1088, 5-(2-(3-chloro-4-fluorophenylamino)-4-(5-methyl-3-(trifluoromethyl)-1H-pyrazol-1-yl)pyrimidin-5-yl)-1-methyl-2-oxo-1,2-dihydrpyridine-3-carboxylic acid], the inhibition at 13 µM stood at 100%.

As to `COCCCNc1nc(Nc2ccc(F)c(Cl)c2)ncc1-c1cncnc1` [Example 75, N^2-(3-chloro-4-fluorophenyl)-N^4-(3-methoxypropyl)-5,5′-bipyrimidin-2,4-diamine], the inhibition at 13 µM was determined as 97.6%.

For the compound `COc1ccc(CNc2nc(Nc3ccc(F)c(Cl)c3)ncc2-c2cnc(OC)nc2)cn1` [Example 465, N2-(3-chloro-4-fluorophenyl)-2′-methoxy-N4-((6-methoxypyridin-3-yl)methyl)-5,5′-bipyrimidine-2,4-diamine], the inhibition at 13 µM was 59%.

As to `COc1cc(Nc2ncc(-c3cccc(/C=C/C(=O)O)c3)c(-n3nc(C(F)(F)F)cc3C)n2)cc(OC)c1` [Example 616, (2E)-3-(3-{2-[(3,5-dimethoxyphenyl)amino]-4-[5-methyl-3-(trifluoromethyl)-1H-pyrazol-1-yl]pyrimidin-5-yl}phenyl)prop-2-enoic acid], the inhibition at 13 µM is 99%.

Regarding `Cc1cc(C)cc(Nc2ncc(-c3cncc(C(=O)O)c3)c(N3CCOCC3)n2)c1` [Example 389, 5-[2-(3,5-Dimethyl-phenylamino)-4-morpholin-4-yl-pyrimidin-5-yl]-nicotinic acid], the inhibition at 13 µM was 85%.

For `COc1ncc(-c2cnc(Nc3cccc(C)c3)nc2-n2ccc(C(F)(F)F)n2)cc1C(=O)O` [Example 726, 2-methoxy-5-{2-[(3-methylphenyl)amino]-4-[3-(trifluoromethyl)-1H-pyrazol-1-yl]pyrimidin-5-yl}pyridine-3-carboxylic acid], the inhibition at 13 µM stood at 100%.

As for `COc1cc(Nc2ncc(-c3cnc(OC)c(C(=O)NS(=O)(=O)c4cccc(C(C)=O)c4)c3)c(-n3nc(C(F)(F)F)cc3C)n2)cc(OC)c1` [Example 844, N-[(3-acetylphenyl)sulfonyl]-5-{2-[(3,5-dimethoxyphenyl)amino]-4-[5-methyl-3-(trifluoromethyl)-1H-pyrazol-1-yl]pyrimidin-5-yl}-2-methoxypyridine-3-carboxamide], the inhibition at 13 µM turned out to be 100%.

For `COc1ncc(-c2cnc(Nc3cc(Cl)cc(C#N)c3)nc2-n2nc(C(F)(F)F)cc2C)cc1C(=O)O` [Example 1122, 5-(2-(3-chloro-5-cyanophenylamino)-4-(5-methyl-3-(trifluoromethyl)-1H-pyrazol-1-yl)pyrimidin-5-yl)-2-methoxynicotinic acid], the inhibition at 13 µM came out at 100%.

As for `COc1cc(Nc2ncc(-c3cncc(C(=O)NCCO)c3)c(-n3ccc(C(F)(F)F)n3)n2)cc(OC)c1` [Example 682, 5-{2-[(3,5-dimethoxyphenyl)amino]-4-[3-(trifluoromethyl)-1H-pyrazol-1-yl]pyrimidin-5-yl}-N-(2-hydroxyethyl)pyridine-3-carboxamide], the inhibition at 13 µM amounted to 100%.

As to `O=C(O)c1cncc(-c2cnc(Nc3ccc(F)c(Cl)c3)nc2N2CCCC(CO)C2)c1` (stereo not shown) [Example 245, 5-[2-[(3-chloro-4-fluorophenyl)amino]-4-[3-(hydroxymethyl)piper-idin-1-yl]pyrimidin-5-yl]pyridine-3-carboxylic acid], the inhibition at 13 µM turned out to be 83.1%.

Turning to `CNC(=O)C1CCN(c2nc(Nc3ccc(F)c(Cl)c3)ncc2-c2cncnc2)CC1` [Example 63, 1-[2-[(3-chloro-4-fluorophenyl)amino]-5-pyrimidin-5-ylpyrimidin-4-yl]-N-methylpiperidine-4-carboxamide], the inhibition at 13 µM turned out to be 69.9%.

With `Cc1cc(C(F)(F)F)nn1-c1nc(Nc2ccc(F)c(Cl)c2)ncc1-c1cnc(OCCn2ccnc2)c(C(=O)O)c1` [Example 795, 5-{2-[(3-chloro-4-fluorophenyl)amino]-4-[5-methyl-3-(trifluoromethyl)-1H-pyrazol-1-yl]pyrimidin-5-yl}-2-[2-(1H-imidazol-1-yl)ethoxy]pyridine-3-carboxylic acid], the inhibition at 13 µM was determined as 100%.

Turning to `O=C(O)c1cncc(-c2cnc(Nc3ccc(F)c(Cl)c3)nc2-n2cnc(Cl)c2Cl)c1` [Example 327, 5-{2-[(3-chloro-4-fluorophenyl)amino]-4-(4,5-dichloro-1H-imidazol-1-yl)pyrimidin-5-yl}pyridine-3-carboxylic acid], the inhibition at 13 µM was determined as 99%.

For the compound `COCCN1CCN(c2nc(Nc3ccc(F)c(Cl)c3)ncc2-c2cncc(C(=O)O)c2)CC1` [Example 284, 5-(2-(3-chloro-4-fluorophenylamino)-4-(4-(2-methoxyethyl)piperazin-1-yl)pyrimidin-5-yl)nicotinic acid], the inhibition at 13 µM stood at 69.4%.

For `CN1CCN(CCOc2ncc(-c3cnc(Nc4ccc(F)c(Cl)c4)nc3-n3ccc(C(F)(F)F)n3)cc2C(=O)O)CC1` [Example 962, 5-(2-(3-chloro-4-fluorophenylamino)-4-(3-(trifluoromethyl)-1H-pyrazol-1-yl)pyrimidin-5-yl)-2-(2-(4-methylpiperazin-1-yl)ethoxy)nicotinic acid], the inhibition at 13 µM turned out to be 98%.

Turning to `O=C(O)/C=C/c1cccc(-c2cnc(Nc3ccc(F)c(Cl)c3)nc2-n2nc(C(F)F)cc2C(F)F)c1` [Example 564, (2E)-3-(3-{4-[3,5-bis(difluoromethyl)-1H-pyrazol-1-yl]-2-[(3-chloro-4-fluorophenyl)amino]pyrimidin-5-yl}phenyl)prop-2-enoic acid], the inhibition at 13 µM was 92%.

On to `O=C(O)/C=C/c1cccc(-c2cnc(Nc3ccc(F)cc3)nc2N2CCOCC2)c1` [Example 447], for which the inhibition at 13 µM stood at 50%.

In the case of `CN(C)CCCNc1nc(Nc2ccc(F)c(Cl)c2)ncc1-c1ccc(C(=O)N(C)C)cc1` [Example 364, 4-(2-(3-chloro-4-fluorophenylamino)-4-(3-(dimethylamino)propylamino)pyrimidin-5-yl)-N,N-dimethylbenzamide], the inhibition at 13 µM is 112%.

For the compound `Cc1ccc(S(=O)(=O)n2ccc3cc(Nc4ncc(-c5cncc(C(=O)O)c5)c(-n5nc(C(F)(F)F)cc5C)n4)ccc32)cc1` [Example 667, 5-{2-({1-[(4-methylphenyl)sulfonyl]-1H-indol-5-yl}amino)-4-[5-methyl-3-(trifluoromethyl)-1H-pyrazol-1-yl]pyrimidin-5-yl}pyridine-3-carboxylic acid], the inhibition at 13 µM stood at 56%.

For the compound `CCOC(=O)/C=C/c1cccc(-c2cnc(Nc3ccc(F)c(Cl)c3)nc2N[C@@H]2CCOC2)c1` [Example 169, (R,E)-ethyl 3-(3-(2-(3-chloro-4-fluorophenylamino)-4-(tetrahydrofuran-3-ylamino)pyrimidin-5-yl)phenyl)acrylate], the inhibition at 13 µM was 34.2%.

As to `Cc1ncsc1CCNc1nc(Nc2ccc(F)c(Cl)c2)ncc1-c1cccc(/C=C/C(=O)O)c1` [Example 269, (2E)-3-[3-(2-[(3-chloro-4-fluorophenyl)amino]-4-{[2-(4-methyl-1,3-thiazol-5-yl)ethyl]amino}pyrimidin-5-yl)phenyl]prop-2-enoic acid], the inhibition at 13 µM worked out at 78%.
